Results on 5 compounds are retold here after ChEMBL document CHEMBL1201862, “PubChem BioAssay data set” (2004).

In test [1] the target is T1, Mannose-6-phosphate isomerase (Homo sapiens, UniProt P34949).
T1 sequence (P34949 whole entry): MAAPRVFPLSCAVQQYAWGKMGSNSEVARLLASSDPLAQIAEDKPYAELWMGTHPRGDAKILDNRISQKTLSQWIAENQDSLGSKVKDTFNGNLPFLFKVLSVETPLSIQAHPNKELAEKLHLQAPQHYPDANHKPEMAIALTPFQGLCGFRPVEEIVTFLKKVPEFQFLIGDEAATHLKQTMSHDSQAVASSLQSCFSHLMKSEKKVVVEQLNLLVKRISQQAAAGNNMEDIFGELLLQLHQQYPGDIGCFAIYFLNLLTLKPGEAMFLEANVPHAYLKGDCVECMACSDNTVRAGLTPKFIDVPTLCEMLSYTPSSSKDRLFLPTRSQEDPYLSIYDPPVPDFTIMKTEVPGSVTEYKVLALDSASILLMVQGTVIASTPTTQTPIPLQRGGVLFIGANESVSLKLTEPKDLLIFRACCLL
Briefly: inhibitors of human PMI, primary screen, biochemical, fluorescence intensity, coupled assay (AID 1209).

For another test, the target named is T2, Caspase-6 (Homo sapiens, UniProt P55212).
T2 sequence (P55212 whole entry): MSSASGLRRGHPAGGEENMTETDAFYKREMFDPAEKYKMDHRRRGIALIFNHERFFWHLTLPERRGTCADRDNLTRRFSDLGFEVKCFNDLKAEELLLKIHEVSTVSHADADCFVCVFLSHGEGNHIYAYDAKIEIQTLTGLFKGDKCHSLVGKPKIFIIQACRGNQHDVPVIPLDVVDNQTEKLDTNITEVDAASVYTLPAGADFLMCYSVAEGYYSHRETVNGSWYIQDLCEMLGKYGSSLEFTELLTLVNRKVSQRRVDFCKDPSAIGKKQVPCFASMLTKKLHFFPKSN
Put plainly: human caspase-6 inhibitors, dose response, biochemical, VEID-R110 fluorescence, cherry-pick (AID 720632).

The test system of the next test is Vero. Put plainly: Vero cell cytotoxicity, cytotoxicity control for flavivirus capping enzyme inhibitors (AID 588742). Type of test: functional. Particulars: Chlorocebus sabaeus.
The nature of test [2]: inhibitors of firefly luciferase expression or activity, dose response, H4 neuroglioma cells, luminescence (AID 1990). Type of test: functional, cell-based.
For test [3], the target named is Histone-lysine N-methyltransferase NSD2 (Homo sapiens, UniProt O96028). Type of test: biochemical.
In test [4] the target is T3, Microphthalmia-associated transcription factor (Homo sapiens, UniProt O75030).
T3 sequence (O75030 whole entry): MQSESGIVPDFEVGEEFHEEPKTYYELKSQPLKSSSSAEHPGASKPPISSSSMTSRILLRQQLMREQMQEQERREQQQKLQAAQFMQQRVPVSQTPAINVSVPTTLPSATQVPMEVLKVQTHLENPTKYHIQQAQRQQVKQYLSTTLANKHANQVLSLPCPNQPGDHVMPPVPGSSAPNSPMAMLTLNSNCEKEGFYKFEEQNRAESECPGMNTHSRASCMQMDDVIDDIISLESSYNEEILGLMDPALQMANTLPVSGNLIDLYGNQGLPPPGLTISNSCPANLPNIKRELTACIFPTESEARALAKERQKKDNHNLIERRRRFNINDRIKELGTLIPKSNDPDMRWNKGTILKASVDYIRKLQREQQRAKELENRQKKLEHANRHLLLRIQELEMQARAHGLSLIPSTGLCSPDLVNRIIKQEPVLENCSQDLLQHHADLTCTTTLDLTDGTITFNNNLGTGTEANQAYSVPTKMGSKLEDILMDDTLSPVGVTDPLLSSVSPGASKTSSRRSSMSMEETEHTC
Briefly: TRPM1 promoter luciferase signal decrease, dose response, MITF inhibitor project, cell-based, SK-MEL-5, cherry-picked, set 3 (AID 493073).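 Also: SK-MEL-5 melanoma cells with luciferase driven by the MITF target TRPM1 promoter.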 Type of test: functional.

A further test has as its system INS1. Briefly: beta cell apoptosis inhibitors, cytokine rescue, dose response, luminescence, retest (AID 449756).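 Also: cell death triggered by IL-1 beta plus TNF-alpha plus IFN-gamma mixture; protective hits raise ATP signal compared with cytokine alone wells.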 Type of test: functional, cell-based. Conditions: Rattus norvegicus.
A short description of the next test: cells. It is filed as functional, cell-based.
Test [5] deals with Serine/threonine-protein kinase Nek2 (Homo sapiens, UniProt P51955). It is filed as functional.
Test [6] addresses Dual specificity tyrosine-phosphorylation-regulated kinase 1B (Homo sapiens, UniProt Q9Y463). Briefly: Navigating the Kinome. Panel member name: DYRK1B. Type of test: functional.
Test [7] concerns the target Death-associated protein kinase 3 (Homo sapiens, UniProt O43293). It is filed as functional.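 Also: measured as one member of a kinome-wide profiling panel.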
The target in test [8] is Mitogen-activated protein kinase 13 (Homo sapiens, UniProt O15264). It is filed as functional.
Chain of Mitogen-activated protein kinase 13 (O15264 whole entry): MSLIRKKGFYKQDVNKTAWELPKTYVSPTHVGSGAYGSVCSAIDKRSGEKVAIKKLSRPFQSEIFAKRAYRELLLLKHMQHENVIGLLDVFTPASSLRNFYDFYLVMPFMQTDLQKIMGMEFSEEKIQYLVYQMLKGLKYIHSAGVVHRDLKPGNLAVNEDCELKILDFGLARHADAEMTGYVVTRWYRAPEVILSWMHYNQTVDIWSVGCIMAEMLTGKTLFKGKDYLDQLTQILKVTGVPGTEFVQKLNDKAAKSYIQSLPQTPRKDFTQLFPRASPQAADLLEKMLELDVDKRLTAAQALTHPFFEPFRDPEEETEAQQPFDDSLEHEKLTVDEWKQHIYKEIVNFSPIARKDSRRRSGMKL
Test [9] has as its target Tyrosine-protein kinase ITK/TSK (Homo sapiens, UniProt Q08881). It is filed as functional.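 Also: affinity for ITK measured as one member of a broad kinase panel profiling binding across the kinome.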
The target of test [10] is Dual specificity tyrosine-phosphorylation-regulated kinase 4 (Homo sapiens, UniProt Q9NR20). Type of test: functional.
Test [11] concerns the target Cyclin-dependent kinase 5 (Homo sapiens, UniProt Q00535). It is filed as functional.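 Also: CDK5 measured as one member of a kinase profiling panel.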
In test [12] the target is Tyrosine-protein kinase Srms (Homo sapiens, UniProt Q9H3Y6). Type of test: functional.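 Also: SRMS measured as one member of a kinome-wide kinase profiling panel.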
Chain of Tyrosine-protein kinase Srms (Q9H3Y6 whole entry): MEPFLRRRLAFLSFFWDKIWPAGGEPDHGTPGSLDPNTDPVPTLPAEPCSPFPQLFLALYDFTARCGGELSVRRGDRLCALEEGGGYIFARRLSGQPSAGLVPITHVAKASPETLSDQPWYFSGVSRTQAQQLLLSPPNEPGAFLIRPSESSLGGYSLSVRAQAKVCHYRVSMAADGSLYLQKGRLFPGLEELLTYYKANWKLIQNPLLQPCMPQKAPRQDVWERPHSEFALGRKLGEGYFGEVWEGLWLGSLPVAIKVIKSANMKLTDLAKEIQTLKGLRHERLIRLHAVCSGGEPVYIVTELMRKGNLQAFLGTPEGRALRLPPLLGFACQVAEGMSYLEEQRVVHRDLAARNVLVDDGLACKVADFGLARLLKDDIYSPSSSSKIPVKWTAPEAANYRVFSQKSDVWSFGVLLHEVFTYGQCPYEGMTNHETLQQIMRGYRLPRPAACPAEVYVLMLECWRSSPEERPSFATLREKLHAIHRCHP
The target in test [13] is Protein kinase C delta type (Homo sapiens, UniProt Q05655). It is filed as functional.
In test [14] the target is Non-receptor tyrosine-protein kinase TYK2 (Homo sapiens, UniProt P29597). It is filed as functional.
For test [15], the target named is Calcium/calmodulin-dependent protein kinase type II subunit delta (Homo sapiens, UniProt Q13557). Type of test: functional.
Test [16] addresses STE20-like serine/threonine-protein kinase (Homo sapiens, UniProt Q9H2G2). Type of test: functional.
Test [17] addresses cGMP-dependent protein kinase 1 (Homo sapiens, UniProt Q13976). It is filed as functional.
In test [18] the target is Serine/threonine-protein kinase PAK 1 (Homo sapiens, UniProt Q13153). Type of test: functional.
Chain of Serine/threonine-protein kinase PAK 1 (Q13153 whole entry): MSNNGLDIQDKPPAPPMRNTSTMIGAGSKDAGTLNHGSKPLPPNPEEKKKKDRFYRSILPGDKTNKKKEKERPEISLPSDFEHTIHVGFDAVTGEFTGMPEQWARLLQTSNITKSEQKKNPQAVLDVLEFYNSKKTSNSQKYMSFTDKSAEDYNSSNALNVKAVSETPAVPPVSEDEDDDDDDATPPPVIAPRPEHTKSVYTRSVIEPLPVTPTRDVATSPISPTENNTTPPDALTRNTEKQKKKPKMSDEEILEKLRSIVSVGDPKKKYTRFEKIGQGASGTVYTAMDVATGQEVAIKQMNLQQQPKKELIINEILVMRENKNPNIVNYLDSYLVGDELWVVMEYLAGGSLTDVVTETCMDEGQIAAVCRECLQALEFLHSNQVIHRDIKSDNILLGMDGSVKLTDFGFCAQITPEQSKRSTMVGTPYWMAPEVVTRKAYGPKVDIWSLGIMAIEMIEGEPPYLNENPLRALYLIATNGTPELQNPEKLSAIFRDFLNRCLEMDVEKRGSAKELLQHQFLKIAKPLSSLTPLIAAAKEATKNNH
The target of test [19] is Tyrosine-protein kinase JAK3 (Homo sapiens, UniProt P52333). Type of test: functional.
Chain of Tyrosine-protein kinase JAK3 (P52333 whole entry): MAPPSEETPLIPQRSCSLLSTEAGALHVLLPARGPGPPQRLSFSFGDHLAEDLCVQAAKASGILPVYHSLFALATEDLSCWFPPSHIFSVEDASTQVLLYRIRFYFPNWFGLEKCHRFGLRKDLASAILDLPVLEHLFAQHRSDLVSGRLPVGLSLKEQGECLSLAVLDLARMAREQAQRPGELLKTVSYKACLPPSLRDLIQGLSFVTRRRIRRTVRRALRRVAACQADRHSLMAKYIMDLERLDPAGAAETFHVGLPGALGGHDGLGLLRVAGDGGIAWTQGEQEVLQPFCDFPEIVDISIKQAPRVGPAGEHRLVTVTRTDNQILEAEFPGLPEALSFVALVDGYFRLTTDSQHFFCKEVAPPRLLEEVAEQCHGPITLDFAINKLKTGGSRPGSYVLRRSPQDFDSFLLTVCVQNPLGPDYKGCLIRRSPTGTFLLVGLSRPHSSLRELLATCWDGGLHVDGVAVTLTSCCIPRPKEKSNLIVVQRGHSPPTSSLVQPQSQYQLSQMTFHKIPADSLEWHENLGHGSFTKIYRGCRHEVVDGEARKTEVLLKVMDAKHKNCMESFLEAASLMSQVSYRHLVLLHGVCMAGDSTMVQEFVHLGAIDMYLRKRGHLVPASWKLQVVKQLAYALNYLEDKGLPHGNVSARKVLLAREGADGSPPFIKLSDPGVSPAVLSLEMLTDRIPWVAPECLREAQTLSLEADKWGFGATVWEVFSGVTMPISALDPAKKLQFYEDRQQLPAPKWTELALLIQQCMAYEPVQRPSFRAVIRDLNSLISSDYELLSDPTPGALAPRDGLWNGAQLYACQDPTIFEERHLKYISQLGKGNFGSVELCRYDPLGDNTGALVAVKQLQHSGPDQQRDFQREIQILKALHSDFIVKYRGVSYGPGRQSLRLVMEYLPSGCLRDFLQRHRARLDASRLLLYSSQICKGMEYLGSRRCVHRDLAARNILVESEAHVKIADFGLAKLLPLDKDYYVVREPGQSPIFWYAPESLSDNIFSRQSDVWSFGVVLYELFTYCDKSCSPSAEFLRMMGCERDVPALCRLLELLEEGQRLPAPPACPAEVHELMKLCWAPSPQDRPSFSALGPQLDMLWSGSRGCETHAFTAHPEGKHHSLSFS
A further test addresses SRSF protein kinase 1 (Homo sapiens, UniProt Q96SB4). It is filed as functional.
Test [20] concerns the target Serine/threonine-protein kinase TAO1 (Homo sapiens, UniProt Q7L7X3). Type of test: functional.
Test [21] has as its target Protein kinase C gamma type (Homo sapiens, UniProt P05129). Type of test: functional.
For test [22], the target named is Mitogen-activated protein kinase 1 (Homo sapiens, UniProt P28482). It is filed as functional.
Chain of Mitogen-activated protein kinase 1 (P28482 whole entry): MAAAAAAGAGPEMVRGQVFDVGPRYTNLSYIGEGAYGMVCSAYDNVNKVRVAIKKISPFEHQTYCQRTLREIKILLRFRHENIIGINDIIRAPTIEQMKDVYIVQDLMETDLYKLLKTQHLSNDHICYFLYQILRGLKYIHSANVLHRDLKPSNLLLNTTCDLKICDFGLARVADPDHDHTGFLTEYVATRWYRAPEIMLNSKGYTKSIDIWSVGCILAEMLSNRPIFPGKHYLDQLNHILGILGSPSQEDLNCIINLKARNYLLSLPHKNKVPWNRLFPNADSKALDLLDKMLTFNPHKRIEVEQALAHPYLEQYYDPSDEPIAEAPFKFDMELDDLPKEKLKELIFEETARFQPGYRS
The target of test [23] is Leucine-rich repeat serine/threonine-protein kinase 2 (Homo sapiens, UniProt Q5S007). It is filed as functional.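 Also: value from a broad kinome-wide panel profiling study in which LRRK2 was one of the kinases tested.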

Calls of active or inactive are those of the source.

Chain of Tyrosine-protein kinase ITK/TSK (Q08881 whole entry): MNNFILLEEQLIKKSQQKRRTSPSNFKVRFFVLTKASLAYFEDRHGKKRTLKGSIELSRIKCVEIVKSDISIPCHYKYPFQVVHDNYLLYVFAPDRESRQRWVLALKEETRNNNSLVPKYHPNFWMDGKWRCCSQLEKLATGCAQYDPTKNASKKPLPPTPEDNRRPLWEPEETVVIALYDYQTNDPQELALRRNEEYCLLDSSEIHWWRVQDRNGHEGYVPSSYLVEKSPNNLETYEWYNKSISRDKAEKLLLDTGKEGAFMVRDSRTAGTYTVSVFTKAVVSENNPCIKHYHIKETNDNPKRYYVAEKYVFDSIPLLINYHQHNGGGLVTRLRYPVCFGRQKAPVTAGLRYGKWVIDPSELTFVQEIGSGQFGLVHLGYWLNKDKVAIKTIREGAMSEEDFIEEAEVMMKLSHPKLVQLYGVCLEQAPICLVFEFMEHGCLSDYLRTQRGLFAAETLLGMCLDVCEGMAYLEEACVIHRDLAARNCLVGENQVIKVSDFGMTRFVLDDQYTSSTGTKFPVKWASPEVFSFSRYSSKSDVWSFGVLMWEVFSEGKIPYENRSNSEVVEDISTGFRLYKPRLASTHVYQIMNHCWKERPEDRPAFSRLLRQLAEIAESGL
Chain of Cyclin-dependent kinase 5 (Q00535 whole entry): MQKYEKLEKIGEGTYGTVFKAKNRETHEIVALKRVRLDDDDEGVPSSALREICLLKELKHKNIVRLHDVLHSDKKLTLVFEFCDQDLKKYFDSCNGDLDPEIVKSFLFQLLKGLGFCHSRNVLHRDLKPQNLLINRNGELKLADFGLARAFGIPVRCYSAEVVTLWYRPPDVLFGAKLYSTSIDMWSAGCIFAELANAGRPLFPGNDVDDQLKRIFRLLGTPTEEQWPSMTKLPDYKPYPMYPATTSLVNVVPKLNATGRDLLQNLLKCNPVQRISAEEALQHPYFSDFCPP
Chain of Death-associated protein kinase 3 (O43293 whole entry): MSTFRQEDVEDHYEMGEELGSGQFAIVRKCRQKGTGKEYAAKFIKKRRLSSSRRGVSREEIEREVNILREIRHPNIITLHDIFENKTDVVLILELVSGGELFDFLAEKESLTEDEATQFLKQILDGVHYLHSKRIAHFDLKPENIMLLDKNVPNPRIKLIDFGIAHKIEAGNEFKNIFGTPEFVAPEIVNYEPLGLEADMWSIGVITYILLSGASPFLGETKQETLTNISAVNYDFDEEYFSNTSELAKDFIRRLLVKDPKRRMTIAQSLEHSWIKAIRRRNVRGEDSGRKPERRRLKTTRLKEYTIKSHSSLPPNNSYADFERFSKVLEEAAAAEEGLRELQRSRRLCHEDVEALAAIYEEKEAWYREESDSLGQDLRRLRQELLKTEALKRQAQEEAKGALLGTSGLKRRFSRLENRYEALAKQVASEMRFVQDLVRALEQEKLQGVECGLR

Take `CC(C)N(C(=O)Nc1ccc2nsnc2c1)C(C)C`: the IC50 in test [1] was > 50 µM (not active). Further, the concentration at half-maximal activity (AC50) at Caspase-6 is 5.6 µM (active).
As to `NS(=O)(=O)c1ccc(NC2=CC(=O)C(=O)c3ccccc32)cc1`, in the test on Vero, the half-maximal cytotoxic concentration (CC50) was 11.8 µM (active). In addition, the concentration giving a half-maximal response (EC50) in test [2] was > 120 µM (not active). Also, the AC50 in test [3] is 3.1 µM (active).
For the compound `CCC(=O)NC(c1ccccc1OC)c1ccc2cccnc2c1O` (stereo not given), the AC50 was 6.7 µM (active) in test [4] and 1.17 µM (active) with INS1. Moreover, in the test “cells”, the half-maximal effective concentration (EC50) is given as > 350 µM (not active).
With `O=C(N/N=C/c1ccc(O)cc1O)c1ccc(CN2C(=O)c3cccc4cccc2c34)cc1`, the AC50 with INS1 was 0.768 µM (active). Further, the concentration for a half-maximal effect (EC50) in “cells” was > 350 µM (not active).
For `Clc1cc(-c2c[nH]c3ncccc23)nc(NC2CCCCC2)n1`, the Ki is > 10 µM (inactive) in [5]; 0.00794 µM (active) in [6]; 0.501 µM (active) in [7]; 1.26 µM (active) in [8]; 1.26 µM (active) in test [9]; 0.501 µM (active) in test [10]. Moreover, the Ki was 0.126 µM (active) in test [11]; > 1.58 µM (inactive) in [12]; > 7.94 µM (inactive) in test [13]; > 2 µM (inactive) in [14]; > 1.26 µM (inactive) in [15]; 6.31 µM (active) in test [16]. Also, the Ki in [17] is 0.794 µM (active); in test [18] it was > 10 µM (inactive); in test [19], > 3.16 µM (inactive); at SRSF protein kinase 1, 0.794 µM (active); in [20], > 7.94 µM (inactive); in test [21], 1 µM (active). Moreover, the Ki is 0.398 µM (active) in test [22] and > 2.51 µM (inactive) in test [23].

By IC50 is commonly meant the midpoint of a concentration-inhibition curve. A lower IC50 goes with higher potency. Usually AC50 stands for the concentration at which the activity in the assay is half-maximal. For orientation: CC50 means the concentration at which the toxic effect on the cells reaches its halfway point. As usually defined, the EC50 is the concentration giving half of the maximal effect. A higher EC50 goes with a less potent agent. What is called Ki is a dissociation constant, usually derived from enzyme kinetics or from competition with a known ligand.
